# Source: patent US20230042936A1, “PYRIDO[2,3-d]PYRIMIDIN-7(8H)-ONES AS CDK INHIBITORS” (PROSENESTAR LLC, priority 2020, published 2023)
# Read-outs that look alike come from different tables or passages of the source.
# How the values were obtained:
# [1] = test system: MCF10 non-transformed mammary epithelial cell line; assay: Proliferation assay: determination of GI50; format: cell-based, human; conditions: Table 3, 48 h, n = 2 independent experiments
# Protocol: (§1) The following human tumor cell lines, all Retinoblastoma (Rb)-proficient, were used in this study: MDA-MB231 (breast cancer), MDA-MB453 (breast cancer), U87MG (glioblastoma) and H460 (lung cancer). MDA-MB468 (breast cancer) and SW1783 (glioblastoma) Rb-deficient cells were also included in the study, as well as the MCF10A non-transformed mammary epithelial cell line. Tumor cell lines were maintained in DMEM or RPMI-1640 medium, depending on the cell line, supplemented with 10% FBS. MCF10A cells were grown in complete mammary epithelial growth medium (MEGM, Lonza). Cell lines were authenticated by short tandem repeat (STR) loci profiling with the GenePrint® 10 System (Promega).
# (§2) All human cancer cell lines (Table 2) were obtained from the American Type Culture Collection, and were maintained in DMEM (Hyclone) or RPMI-1640 medium (Sigma) supplemented with 10% fetal bovine serum (Sigma). Non-transformed MCF10 cell line was maintained in MEGM Mammary Epithelial Cell Growth Medium (Lonza). Immortalized mouse embryonic fibroblasts (MEFs) were maintained in DMEM with 10% fetal bovine serum.
# (§3) 48 h later cells were fixed with PFA 4% for 15 minutes, stained with 10 μg/ml Hoechst 33342 (Molecular Probes, Thermo Fisher) for 30 minutes and washed twice with PBS. Cells were imaged in a high content screening system (Opera Phoenix™, Perkin Elmer) using a 20× dry objective (30 fields/well). Cell counts were determined by the Opera software (Perkin Elmer) and data were further processed with SPSS software. GI50 was calculated by estimating the absolute IC50 using dose-response inhibition tool in Prism6 (Graphpad Software Inc.).
# [2] = test system: U87MG glioblastoma cell line; assay: Proliferation assay: determination of GI50; format: cell-based, human; conditions: Table 3, 48 h, n = 3 independent experiments, read-out: GI50 U87MG
# Protocol: as §1, §2, §3
# [3] = test system: H460 lung carcinoma cell line; assay: Proliferation assay: determination of GI50; format: cell-based, human; conditions: Table 3, 48 h, n = 2 independent experiments
# Protocol: as §1, §2, §3
# [4] = test system: MDA-MB-231 breast carcinoma cell line; assay: Proliferation assay: determination of GI50; format: cell-based, human; conditions: Table 3, 48 h, n = 3 independent experiments, read-out: GI50 MDA-MB231
# Protocol: as §1, §2, §3
# DYRK2 = molecular target: T1, DYRK2 (Homo sapiens, UniProt Q92630); assay: Kinase profiling; format: biochemical; conditions: 10 semi-logarithmic dilutions from 50 μM, singlicate; read-out: IC50 DYRK2
# T1 sequence (Q92630 1-601): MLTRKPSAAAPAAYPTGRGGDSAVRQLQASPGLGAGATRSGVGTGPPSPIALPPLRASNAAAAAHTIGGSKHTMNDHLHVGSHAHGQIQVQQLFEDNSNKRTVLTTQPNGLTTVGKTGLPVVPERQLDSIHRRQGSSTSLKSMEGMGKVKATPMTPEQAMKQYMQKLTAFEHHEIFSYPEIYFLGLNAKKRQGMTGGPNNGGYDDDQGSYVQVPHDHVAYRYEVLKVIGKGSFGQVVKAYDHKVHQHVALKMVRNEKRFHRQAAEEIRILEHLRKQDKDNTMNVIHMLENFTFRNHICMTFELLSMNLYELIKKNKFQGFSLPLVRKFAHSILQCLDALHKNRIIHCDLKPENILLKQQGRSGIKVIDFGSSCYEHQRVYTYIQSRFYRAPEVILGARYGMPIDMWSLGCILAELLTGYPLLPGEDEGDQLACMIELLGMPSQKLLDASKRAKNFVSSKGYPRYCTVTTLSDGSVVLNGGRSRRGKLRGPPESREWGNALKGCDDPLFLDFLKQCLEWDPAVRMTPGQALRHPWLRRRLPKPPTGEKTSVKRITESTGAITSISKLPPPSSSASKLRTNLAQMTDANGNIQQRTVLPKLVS
# CDK5/p25NCK = CDK5/p25NCK (Homo sapiens, UniProt Q00535); assay: Kinase profiling; format: biochemical; conditions: 10 semi-logarithmic dilutions from 50 μM, singlicate
# CDK3/CycE1 = CDK3/CycE1 (Homo sapiens, UniProt Q00526); assay: Kinase profiling; format: biochemical; conditions: 10 semi-logarithmic dilutions from 50 μM, singlicate
# PIM1 = PIM1 (Homo sapiens, UniProt P11309); assay: Kinase profiling; format: biochemical; conditions: 10 semi-logarithmic dilutions from 50 μM, singlicate
# PCTAIRE1/CycY = PCTAIRE1/CycY (Homo sapiens, UniProt Q00536); assay: Kinase profiling; format: biochemical; conditions: 10 semi-logarithmic dilutions from 50 μM, singlicate
# ERK1 = ERK1 (Homo sapiens, UniProt P27361); assay: Kinase profiling; format: biochemical; conditions: 10 semi-logarithmic dilutions from 50 μM, singlicate
# HIPK2 = HIPK2 (Homo sapiens, UniProt Q9H2X6); assay: Kinase profiling; format: biochemical; conditions: 10 semi-logarithmic dilutions from 50 μM, singlicate; read-out: IC50 HIPK2
# CDK19/CycC = CDK19/CycC (Homo sapiens, UniProt Q9BWU1); assay: Kinase profiling; format: biochemical; conditions: 10 semi-logarithmic dilutions from 50 μM, singlicate
# CDK3/CycC = CDK3/CycC (Homo sapiens, UniProt Q00526); assay: Kinase profiling; format: biochemical; conditions: 10 semi-logarithmic dilutions from 50 μM, singlicate
# CDK12wt/CycK = CDK12wt/CycK (Homo sapiens, UniProt Q9NYV4); assay: Kinase profiling; format: biochemical; conditions: 10 semi-logarithmic dilutions from 50 μM, singlicate
# [5] = test system: MDA-MB-231 human breast cancer cells; assay: Cell cycle analysis (DNA content, flow cytometry); format: cell-based; conditions: GI50 concentration; FIG. 1
# Protocol: FIG. 1 depicts DNA content profiles of MDA-MB-231 human breast cancer cells treated with subject compounds or commercial CDK inhibitors, showing the percentage of cells at the different cell cycle phases after 48 hours of the treatments indicated. (n=6 technical replicates).
# Cells were collected by trypsinization, washed with PBS and fixed with cold 70% ethanol. Cells were treated with 250 μg/ml RNase (Qiagen) for 30 minutes at 37° C. and stained with 10 μg/ml Propidium Iodide (Sigma). Cell cycle was analyzed by flow cytometry using a LSR Fortessa Analyzer. Cell cycle profiles were generated and analyzed with FlowJo software.
# Cells were collected by tripsinization at several times after treatment with the indicated compounds and, then, fixed with cold 70% Ethanol. DNA content was determined by staining with propidium iodide (10 μg/ml, Sigma Aldrich). Data acquisition was performed with a LSR Fortessa analyzer (BD Biosciences) and analysed using FlowJo software.
# CDK5/p35NCK = CDK5/p35NCK (Homo sapiens, UniProt Q00535); assay: Kinase profiling; format: biochemical; conditions: 10 semi-logarithmic dilutions from 50 μM, singlicate
# AKT1 aa1-480 = molecular target: T2, AKT1 aa1-480 (Homo sapiens, UniProt P31749); assay: Kinase profiling; format: biochemical; conditions: 10 semi-logarithmic dilutions from 50 μM, singlicate
# T2 construct: AKT1 aa1-480
# DYRK1A = DYRK1A (Homo sapiens, UniProt Q13627); assay: Kinase profiling; format: biochemical; conditions: 10 semi-logarithmic dilutions from 50 μM, singlicate
# CDK7/CycH/MAT1 = CDK7/CycH/MAT1 (Homo sapiens, UniProt P50613); assay: Kinase profiling; format: biochemical; conditions: 10 semi-logarithmic dilutions from 50 μM, singlicate
# CDC7/DBF4 = CDC7/DBF4 (Homo sapiens, UniProt O00311); assay: Kinase profiling; format: biochemical; conditions: 10 semi-logarithmic dilutions from 50 μM, singlicate; read-out: IC50 CDC7/DBF4
# CDK8/CycC = CDK8/CycC (Homo sapiens, UniProt P49336); assay: Kinase profiling; format: biochemical; conditions: 10 semi-logarithmic dilutions from 50 μM, singlicate
# Sequence of CDK8/CycC (P49336 whole entry): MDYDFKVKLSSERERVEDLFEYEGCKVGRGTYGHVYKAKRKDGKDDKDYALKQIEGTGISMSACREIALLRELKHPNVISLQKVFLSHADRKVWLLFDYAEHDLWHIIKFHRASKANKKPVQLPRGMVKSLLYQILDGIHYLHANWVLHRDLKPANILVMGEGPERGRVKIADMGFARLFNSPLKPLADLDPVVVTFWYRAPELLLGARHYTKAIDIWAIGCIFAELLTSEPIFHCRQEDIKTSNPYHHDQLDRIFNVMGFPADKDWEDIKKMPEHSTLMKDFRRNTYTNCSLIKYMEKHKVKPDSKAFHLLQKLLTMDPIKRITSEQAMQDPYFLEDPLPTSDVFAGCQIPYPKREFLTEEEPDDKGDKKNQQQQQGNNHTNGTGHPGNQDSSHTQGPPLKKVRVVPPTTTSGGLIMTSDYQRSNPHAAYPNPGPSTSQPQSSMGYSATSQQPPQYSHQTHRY
# Sequence of CDK8/CycC (P24863 whole entry partner): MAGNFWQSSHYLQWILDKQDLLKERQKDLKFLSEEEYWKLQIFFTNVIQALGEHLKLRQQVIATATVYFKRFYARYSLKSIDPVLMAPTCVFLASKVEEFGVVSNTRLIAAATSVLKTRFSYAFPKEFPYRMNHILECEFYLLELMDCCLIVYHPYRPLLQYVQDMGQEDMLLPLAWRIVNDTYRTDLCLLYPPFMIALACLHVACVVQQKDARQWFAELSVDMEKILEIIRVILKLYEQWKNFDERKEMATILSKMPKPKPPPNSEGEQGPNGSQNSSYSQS
# Sequence of CDK12wt/CycK (Q9NYV4 whole entry): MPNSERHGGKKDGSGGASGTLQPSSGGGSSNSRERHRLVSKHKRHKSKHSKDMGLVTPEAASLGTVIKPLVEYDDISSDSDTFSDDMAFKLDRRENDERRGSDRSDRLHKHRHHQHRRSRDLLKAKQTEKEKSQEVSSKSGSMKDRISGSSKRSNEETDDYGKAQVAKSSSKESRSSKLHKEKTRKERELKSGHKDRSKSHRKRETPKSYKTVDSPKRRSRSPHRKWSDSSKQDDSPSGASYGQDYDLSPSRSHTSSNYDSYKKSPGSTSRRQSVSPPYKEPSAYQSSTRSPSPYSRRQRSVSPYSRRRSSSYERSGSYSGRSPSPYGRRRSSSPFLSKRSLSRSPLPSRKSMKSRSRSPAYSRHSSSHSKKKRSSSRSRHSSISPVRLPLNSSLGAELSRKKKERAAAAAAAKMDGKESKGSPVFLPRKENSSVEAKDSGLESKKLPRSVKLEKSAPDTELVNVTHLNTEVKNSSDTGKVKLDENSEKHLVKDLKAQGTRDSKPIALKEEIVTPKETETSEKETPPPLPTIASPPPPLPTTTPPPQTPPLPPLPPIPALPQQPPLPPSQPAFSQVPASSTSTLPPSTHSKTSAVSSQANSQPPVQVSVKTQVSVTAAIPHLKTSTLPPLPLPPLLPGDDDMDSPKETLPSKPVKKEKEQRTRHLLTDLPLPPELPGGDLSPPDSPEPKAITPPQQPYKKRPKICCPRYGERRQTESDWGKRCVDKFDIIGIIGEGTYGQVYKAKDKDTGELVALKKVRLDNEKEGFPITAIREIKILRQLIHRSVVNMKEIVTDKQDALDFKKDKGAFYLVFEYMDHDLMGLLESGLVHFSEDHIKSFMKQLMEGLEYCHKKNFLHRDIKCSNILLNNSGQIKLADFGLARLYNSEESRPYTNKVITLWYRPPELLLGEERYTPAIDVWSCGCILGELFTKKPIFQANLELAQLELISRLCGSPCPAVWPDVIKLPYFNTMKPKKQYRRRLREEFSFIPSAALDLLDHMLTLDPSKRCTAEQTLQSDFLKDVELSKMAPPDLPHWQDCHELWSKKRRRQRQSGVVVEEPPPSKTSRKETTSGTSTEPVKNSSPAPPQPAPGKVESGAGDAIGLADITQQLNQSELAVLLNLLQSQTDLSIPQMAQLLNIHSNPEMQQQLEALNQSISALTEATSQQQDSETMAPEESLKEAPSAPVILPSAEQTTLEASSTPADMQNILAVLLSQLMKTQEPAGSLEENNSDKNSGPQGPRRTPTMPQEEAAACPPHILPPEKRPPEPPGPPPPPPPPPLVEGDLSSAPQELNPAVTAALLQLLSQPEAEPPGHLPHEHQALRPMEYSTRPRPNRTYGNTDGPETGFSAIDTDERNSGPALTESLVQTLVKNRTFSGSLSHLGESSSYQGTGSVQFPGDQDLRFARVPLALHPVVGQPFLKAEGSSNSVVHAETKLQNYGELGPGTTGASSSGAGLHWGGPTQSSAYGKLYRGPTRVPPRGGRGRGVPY
# Sequence of CDK12wt/CycK (O75909 whole entry partner): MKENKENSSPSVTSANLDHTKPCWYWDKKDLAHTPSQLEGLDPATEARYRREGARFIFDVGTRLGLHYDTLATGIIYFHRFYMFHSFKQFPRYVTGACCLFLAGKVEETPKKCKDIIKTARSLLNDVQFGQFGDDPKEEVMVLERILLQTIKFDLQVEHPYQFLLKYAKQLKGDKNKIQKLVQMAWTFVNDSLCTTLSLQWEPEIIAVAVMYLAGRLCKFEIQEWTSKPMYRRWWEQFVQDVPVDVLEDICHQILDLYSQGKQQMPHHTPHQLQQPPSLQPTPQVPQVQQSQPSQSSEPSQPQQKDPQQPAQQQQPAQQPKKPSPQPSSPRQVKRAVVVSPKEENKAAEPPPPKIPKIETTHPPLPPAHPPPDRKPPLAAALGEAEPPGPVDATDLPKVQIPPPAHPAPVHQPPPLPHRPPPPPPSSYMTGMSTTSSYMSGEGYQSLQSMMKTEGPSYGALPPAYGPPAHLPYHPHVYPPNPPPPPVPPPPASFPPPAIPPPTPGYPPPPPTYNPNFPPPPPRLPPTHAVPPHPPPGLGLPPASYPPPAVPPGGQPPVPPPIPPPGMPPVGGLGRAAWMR
# Sequence of CDK7/CycH/MAT1 (P50613 whole entry): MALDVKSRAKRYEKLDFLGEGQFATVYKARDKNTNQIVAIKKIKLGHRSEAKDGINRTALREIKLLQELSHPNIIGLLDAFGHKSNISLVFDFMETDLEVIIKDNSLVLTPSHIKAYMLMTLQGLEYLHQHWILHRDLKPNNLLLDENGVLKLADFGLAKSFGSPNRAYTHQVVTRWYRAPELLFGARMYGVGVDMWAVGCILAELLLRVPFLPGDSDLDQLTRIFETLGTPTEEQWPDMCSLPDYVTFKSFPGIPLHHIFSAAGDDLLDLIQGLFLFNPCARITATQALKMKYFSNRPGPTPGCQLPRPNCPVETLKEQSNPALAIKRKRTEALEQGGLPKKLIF
# Sequence of CDK7/CycH/MAT1 (P51946 whole entry partner): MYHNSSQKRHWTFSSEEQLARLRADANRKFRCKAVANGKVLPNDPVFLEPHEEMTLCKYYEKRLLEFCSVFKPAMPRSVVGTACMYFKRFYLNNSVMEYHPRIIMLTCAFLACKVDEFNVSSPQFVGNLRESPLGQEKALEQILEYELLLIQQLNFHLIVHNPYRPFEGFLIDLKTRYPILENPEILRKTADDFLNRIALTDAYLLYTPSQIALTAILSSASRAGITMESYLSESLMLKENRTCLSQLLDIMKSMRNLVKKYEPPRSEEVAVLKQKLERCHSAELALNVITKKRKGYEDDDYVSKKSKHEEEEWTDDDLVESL
# Sequence of CDK7/CycH/MAT1 (P51948 whole entry partner): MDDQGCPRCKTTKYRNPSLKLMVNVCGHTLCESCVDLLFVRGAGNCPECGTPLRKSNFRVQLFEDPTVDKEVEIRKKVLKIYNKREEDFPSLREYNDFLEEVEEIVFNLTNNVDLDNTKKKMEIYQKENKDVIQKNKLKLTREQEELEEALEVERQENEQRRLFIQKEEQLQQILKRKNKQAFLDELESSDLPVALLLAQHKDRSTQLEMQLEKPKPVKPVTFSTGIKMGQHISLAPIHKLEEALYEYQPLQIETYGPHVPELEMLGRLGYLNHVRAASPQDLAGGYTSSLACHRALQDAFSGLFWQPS
# Sequence of PCTAIRE1/CycY (Q00536 whole entry, species assumed): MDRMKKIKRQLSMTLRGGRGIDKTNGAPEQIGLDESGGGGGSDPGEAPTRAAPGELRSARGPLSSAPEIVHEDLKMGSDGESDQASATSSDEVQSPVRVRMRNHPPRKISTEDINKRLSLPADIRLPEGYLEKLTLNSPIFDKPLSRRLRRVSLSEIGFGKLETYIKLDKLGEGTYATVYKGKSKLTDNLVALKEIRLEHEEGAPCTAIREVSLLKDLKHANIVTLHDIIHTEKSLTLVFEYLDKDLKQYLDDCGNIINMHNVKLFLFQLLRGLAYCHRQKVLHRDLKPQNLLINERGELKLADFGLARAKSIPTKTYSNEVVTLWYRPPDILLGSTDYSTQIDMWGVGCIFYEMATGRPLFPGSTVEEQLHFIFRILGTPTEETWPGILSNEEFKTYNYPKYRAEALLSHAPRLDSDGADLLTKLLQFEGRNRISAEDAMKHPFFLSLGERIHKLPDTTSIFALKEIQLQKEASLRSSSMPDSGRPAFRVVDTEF
# Sequence of PCTAIRE1/CycY (Q8ND76 whole entry partner, species assumed): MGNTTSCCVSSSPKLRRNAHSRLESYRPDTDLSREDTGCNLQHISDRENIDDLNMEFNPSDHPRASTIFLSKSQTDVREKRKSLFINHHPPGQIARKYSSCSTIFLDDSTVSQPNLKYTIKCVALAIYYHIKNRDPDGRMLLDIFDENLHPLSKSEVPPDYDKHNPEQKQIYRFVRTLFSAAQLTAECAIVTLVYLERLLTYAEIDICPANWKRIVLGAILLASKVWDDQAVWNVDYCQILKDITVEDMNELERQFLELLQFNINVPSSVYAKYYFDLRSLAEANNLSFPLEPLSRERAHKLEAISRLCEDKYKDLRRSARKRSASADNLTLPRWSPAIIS
# Sequence of CDK3/CycC (Q00526 whole entry): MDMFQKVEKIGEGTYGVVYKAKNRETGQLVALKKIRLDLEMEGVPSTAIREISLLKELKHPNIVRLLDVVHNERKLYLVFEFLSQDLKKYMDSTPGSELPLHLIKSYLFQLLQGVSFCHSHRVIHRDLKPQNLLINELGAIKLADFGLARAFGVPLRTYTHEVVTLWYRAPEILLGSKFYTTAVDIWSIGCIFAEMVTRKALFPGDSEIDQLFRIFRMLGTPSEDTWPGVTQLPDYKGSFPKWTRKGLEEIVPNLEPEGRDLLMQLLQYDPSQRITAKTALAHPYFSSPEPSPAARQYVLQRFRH
# Sequence of CDK3/CycC (P24863 whole entry partner): as the sequence (P24863 whole entry partner) above
smiles,measurement,setting,value
"O=C1NC(=NCc2cccs2)S/C1=C\c1ccc2ncccc2c1 [RO-3306, reference compound]",GI50,[1],2800 nM
same,GI50,[2],> 50000 nM
same,GI50,[3],25600 nM
same,GI50,[4],3200 nM
"CN(C)C(=O)c1cc2cnc(Nc3ccc(N4CCNCC4)cn3)nc2n1C1CCCC1 [Ribociclib, reference compound]",IC50,DYRK2,13.9 nM
same,IC50,CDK5/p25NCK,2190 nM
same,IC50,CDK3/CycE1,1660 nM
same,IC50,PIM1,24.4 nM
same,IC50,PCTAIRE1/CycY,589 nM
same,IC50,ERK1,> 50000 nM
same,IC50,HIPK2,39.7 nM
same,IC50,CDK19/CycC,362 nM
same,IC50,CDK3/CycC,323 nM
same,GI50,"[1]; Homo sapiens, MCF10",540 nM
same,GI50,"[2]; Homo sapiens, U-87 MG",260 nM
same,GI50,"[3]; Homo sapiens, NCI-H460",1470 nM
same,GI50,"[4]; Homo sapiens, MDA-MB-231",700 nM
same,IC50,CDK12wt/CycK,495 nM
same,cell cycle arrest by DNA content,[5],robust G0/G1-phase arrest
same,IC50,CDK5/p35NCK,641 nM
same,IC50,AKT1 aa1-480,> 50000 nM
same,IC50,DYRK1A,14.5 nM
same,IC50,CDK7/CycH/MAT1,7350 nM
same,IC50,CDC7/DBF4,318 nM
same,IC50,CDK8/CycC,2020 nM
